Data on seven molecules can be found in patent publication US20240239861A1, “GLUCAGON-RECEPTOR SELECTIVE POLYPEPTIDES AND METHODS OF USE THEREOF” (i2O Therapeutics, Inc., priority 2016, published 2024).

Each structure is given as a SMILES string. *1 amine or outer side, *2 acyl side, *3 side chain or, on linkers, in order; H or OH if unused. Where a SMILES comes first, the peptide text is derived from it. Side-chain parts run from the residue outwards. [ ]: non-standard residue; d: D form. The star is where a group is joined. γGlu = O=C(O)[C@H](CCC(=O)[*:2])N[*:1]; Palmitoyl = CCCCCCCCCCCCCCCC(=O)*; Aib = CC(C)(N)C(=O)O

In assay [1] the target is human GCGR (Homo sapiens, UniProt P47871). As to the kind of experiment: Peptide-receptor mediated cAMP accumulation (LANCE Ultra cAMP) in CHO-K1 cells transfected with human GCGR. In kind it is cell-based. Conditions: read-out: GluR pEC50 (converted).
human GCGR, sequence (P47871 26-477): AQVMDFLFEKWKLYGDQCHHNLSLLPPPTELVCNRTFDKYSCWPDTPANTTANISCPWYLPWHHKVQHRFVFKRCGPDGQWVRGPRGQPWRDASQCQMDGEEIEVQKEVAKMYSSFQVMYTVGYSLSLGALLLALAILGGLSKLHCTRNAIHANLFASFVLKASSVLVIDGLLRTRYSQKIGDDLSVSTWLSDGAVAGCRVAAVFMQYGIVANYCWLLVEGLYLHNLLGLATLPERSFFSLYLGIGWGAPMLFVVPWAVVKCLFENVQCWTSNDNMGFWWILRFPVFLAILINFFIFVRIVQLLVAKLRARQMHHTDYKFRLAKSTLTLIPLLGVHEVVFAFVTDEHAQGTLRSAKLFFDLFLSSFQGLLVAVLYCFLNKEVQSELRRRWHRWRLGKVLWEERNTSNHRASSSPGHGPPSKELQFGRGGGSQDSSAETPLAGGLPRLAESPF
In assay [2] the target is human GLP-1R (Homo sapiens, UniProt P43220). Description: Peptide-receptor mediated cAMP accumulation (LANCE Ultra cAMP) in CHO-K1 cells transfected with human GLP-1R. In kind it is cell-based. The conditions noted are these: Table 7; GLP-1R; read-out: GLP-1R pEC50 (converted).
human GLP-1R, sequence (P43220 24-463): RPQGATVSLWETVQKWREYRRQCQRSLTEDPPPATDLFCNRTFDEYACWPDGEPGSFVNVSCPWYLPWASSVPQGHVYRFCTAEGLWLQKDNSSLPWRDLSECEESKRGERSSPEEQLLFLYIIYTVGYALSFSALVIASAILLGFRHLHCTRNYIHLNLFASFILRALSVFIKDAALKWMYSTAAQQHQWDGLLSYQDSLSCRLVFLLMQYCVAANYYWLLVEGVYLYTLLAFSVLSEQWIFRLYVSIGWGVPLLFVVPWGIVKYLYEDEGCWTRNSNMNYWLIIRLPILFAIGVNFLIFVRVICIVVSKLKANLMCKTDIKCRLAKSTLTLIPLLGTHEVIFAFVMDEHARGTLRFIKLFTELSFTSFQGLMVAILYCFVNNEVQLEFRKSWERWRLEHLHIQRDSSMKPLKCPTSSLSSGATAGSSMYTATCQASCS

Turning to `CCCCCCCCCCCCCCCC(=O)N[C@@H](CCC(=O)NCCCC[C@H](NC(=O)[C@H](CO)NC(=O)[C@H](CO)NC(=O)[C@@H]1CCCN1C(=O)[C@H](CCC(=O)O)NC(=O)[C@H](CC(=O)O)NC(=O)[C@H](CCC(=O)O)NC(=O)[C@H](CC(C)C)NC(=O)[C@H](Cc1c[nH]c2ccccc12)NC(=O)[C@@H](NC(=O)[C@@H](NC(=O)[C@H](Cc1ccccc1)NC(=O)[C@H](CCC(=O)O)NC(=O)[C@H](CCC(N)=O)NC(=O)[C@H](C)NC(=O)[C@H](CCCNC(=N)N)NC(=O)[C@H](CCCCN)NC(=O)C(C)(C)NC(=O)[C@H](CC(=O)O)NC(=O)[C@H](CC(C)C)NC(=O)[C@H](Cc1ccc(O)cc1)NC(=O)[C@H](CCCCN)NC(=O)[C@H](CO)NC(=O)[C@H](Cc1ccc(O)cc1)NC(=O)[C@H](CC(=O)O)NC(=O)[C@H](CO)NC(=O)[C@@H](NC(=O)[C@H](Cc1ccccc1)NC(=O)[C@@H](NC(=O)CNC(=O)[C@H](Cc1c[nH]cn1)NC(=O)[C@H](CO)NC(=O)[C@@H](N)Cc1ccc(O)cc1)[C@@H](C)O)[C@@H](C)O)C(C)C)[C@@H](C)CC)C(=O)N[C@@H](C)C(=O)N1CCC[C@H]1C(=O)N1CCC[C@H]1C(=O)N1CCC[C@H]1C(=O)N[C@@H](CO)C(=O)O)C(=O)O` [Compound B25], the EC50 is 0.0316 nM in assay [1] and above 1000 nM in assay [2].
Taken in the same sequence, the figures for `CCCCCCCCCCCCCCCC(=O)N[C@@H](CCC(=O)NCCCC[C@H](NC(=O)[C@H](CC(=O)O)NC(=O)[C@H](CC(C)C)NC(=O)[C@H](Cc1ccc(O)cc1)NC(=O)[C@H](CCCCN)NC(=O)[C@H](CO)NC(=O)[C@H](Cc1ccc(O)cc1)NC(=O)[C@H](CC(=O)O)NC(=O)[C@H](CO)NC(=O)[C@@H](NC(=O)[C@H](Cc1ccccc1)NC(=O)[C@@H](NC(=O)CNC(=O)[C@H](Cc1c[nH]cn1)NC(=O)[C@H](CO)NC(=O)[C@@H](N)Cc1ccc(O)cc1)[C@@H](C)O)[C@@H](C)O)C(=O)N[C@@H](CCCCN)C(=O)N[C@@H](CCCNC(=N)N)C(=O)N[C@@H](C)C(=O)N[C@@H](CCC(N)=O)C(=O)N[C@@H](CCC(=O)O)C(=O)N[C@@H](Cc1ccccc1)C(=O)N[C@H](C(=O)N[C@H](C(=O)N[C@@H](Cc1c[nH]c2ccccc12)C(=O)N[C@@H](CC(C)C)C(=O)N[C@@H](CCC(=O)O)C(=O)N[C@@H](CC(=O)O)C(=O)N[C@@H](CCC(=O)O)C(=O)N1CCC[C@H]1C(=O)N[C@@H](CO)C(=O)N[C@@H](CO)C(=O)NCC(=O)N[C@@H](C)C(=O)N1CCC[C@H]1C(=O)N1CCC[C@H]1C(=O)N1CCC[C@H]1C(=O)N[C@@H](CO)C(=O)O)[C@@H](C)CC)C(C)C)C(=O)O` [Compound B26] were 0.01 nM and above 1000 nM.
The matching figures for `CCCCCCCCCCCCCCCC(=O)N[C@@H](CCC(=O)NCCCC[C@H](NC(=O)[C@H](CC(=O)O)NC(=O)[C@H](CO)NC(=O)[C@@H](NC(=O)[C@H](Cc1ccccc1)NC(=O)[C@@H](NC(=O)CNC(=O)[C@H](Cc1c[nH]cn1)NC(=O)[C@H](CO)NC(=O)[C@@H](N)Cc1ccc(O)cc1)[C@@H](C)O)[C@@H](C)O)C(=O)N[C@@H](CO)C(=O)N[C@@H](CCCCN)C(=O)N[C@@H](Cc1ccc(O)cc1)C(=O)N[C@@H](CC(C)C)C(=O)N[C@@H](CC(=O)O)C(=O)NC(C)(C)C(=O)N[C@@H](CCCCN)C(=O)N[C@@H](CCCNC(=N)N)C(=O)N[C@@H](C)C(=O)N[C@@H](CCC(N)=O)C(=O)N[C@@H](CCC(=O)O)C(=O)N[C@@H](Cc1ccccc1)C(=O)N[C@H](C(=O)N[C@H](C(=O)N[C@@H](Cc1c[nH]c2ccccc12)C(=O)N[C@@H](CC(C)C)C(=O)N[C@@H](CCC(=O)O)C(=O)N[C@@H](CC(=O)O)C(=O)N[C@@H](CCC(=O)O)C(=O)N1CCC[C@H]1C(=O)N[C@@H](CO)C(=O)N[C@@H](CO)C(=O)NCC(=O)N[C@@H](C)C(=O)N1CCC[C@H]1C(=O)N1CCC[C@H]1C(=O)N1CCC[C@H]1C(=O)N[C@@H](CO)C(=O)O)[C@@H](C)CC)C(C)C)C(=O)O` [Compound B27] (H-YSHGTFTSDK([γGlu-Palmitoyl])SKYLD[Aib]KRAQEFVIWLEDEPSSGAPPPS-OH): 0.00316 nM and 251 nM.
For the molecule `CCCCCCCCCCCCCCCC(=O)N[C@@H](CCC(=O)NCCCC[C@H](NC(=O)[C@@H](NC(=O)[C@H](Cc1ccccc1)NC(=O)[C@H](CCC(=O)O)NC(=O)[C@H](CCC(N)=O)NC(=O)[C@H](C)NC(=O)[C@H](CCCNC(=N)N)NC(=O)[C@H](C)NC(=O)[C@H](C)NC(=O)[C@H](CC(=O)O)NC(=O)[C@H](CC(C)C)NC(=O)[C@H](Cc1ccc(O)cc1)NC(=O)[C@H](CCCCN)NC(=O)[C@H](CO)NC(=O)[C@H](Cc1ccc(O)cc1)NC(=O)[C@H](CC(=O)O)NC(=O)[C@H](CO)NC(=O)[C@@H](NC(=O)[C@H](Cc1ccccc1)NC(=O)[C@@H](NC(=O)CNC(=O)[C@H](CCC(N)=O)NC(=O)[C@H](CO)NC(=O)[C@@H](N)Cc1ccc(O)cc1)[C@@H](C)O)[C@@H](C)O)C(C)C)C(=O)N[C@@H](Cc1c[nH]c2ccccc12)C(=O)N[C@@H](CC(C)C)C(=O)N[C@@H](CCC(=O)O)C(=O)N[C@@H](CC(=O)O)C(=O)N[C@@H](CCC(=O)O)C(=O)N1CCC[C@H]1C(=O)N[C@@H](CCCCN)C(=O)N[C@@H](CO)C(=O)N[C@@H](CCCCN)C(=O)N[C@@H](CO)C(=O)N1CCC[C@H]1C(=O)N1CCC[C@H]1C(=O)N1CCC[C@H]1C(=O)N[C@@H](CO)C(N)=O)C(=O)O` [Compound B34] (H-YSQGTFTSDYSKYLDAARAQEFVK([γGlu-Palmitoyl])WLEDEPKSKSPPPS-NH2), the EC50 is 0.158 nM in assay [1] and above 1000 nM in assay [2].
The matching figures for `CCCCCCCCCCCCCCCC(=O)N[C@@H](CCC(=O)NCCCC[C@H](NC(=O)[C@H](CC(=O)O)NC(=O)[C@H](CC(C)C)NC(=O)[C@H](Cc1ccc(O)cc1)NC(=O)[C@H](CCCCN)NC(=O)[C@H](CO)NC(=O)[C@H](Cc1ccc(O)cc1)NC(=O)[C@H](CC(=O)O)NC(=O)[C@H](CO)NC(=O)[C@@H](NC(=O)[C@H](Cc1ccccc1)NC(=O)[C@@H](NC(=O)CNC(=O)[C@H](CCC(N)=O)NC(=O)[C@H](CO)NC(=O)[C@@H](N)Cc1ccc(O)cc1)[C@@H](C)O)[C@@H](C)O)C(=O)N[C@@H](C)C(=O)N[C@@H](CCCNC(=N)N)C(=O)N[C@@H](C)C(=O)N[C@@H](CCC(N)=O)C(=O)N[C@@H](CCC(=O)O)C(=O)N[C@@H](Cc1ccccc1)C(=O)N[C@H](C(=O)N[C@@H](CCCCN)C(=O)N[C@@H](Cc1c[nH]c2ccccc12)C(=O)N[C@@H](CC(C)C)C(=O)N[C@@H](CCC(=O)O)C(=O)N[C@@H](CC(=O)O)C(=O)N[C@@H](CCC(=O)O)C(=O)N1CCC[C@H]1C(=O)N[C@@H](CCCCN)C(=O)N[C@@H](CO)C(=O)N[C@@H](CCCCN)C(=O)N[C@@H](CO)C(=O)N1CCC[C@H]1C(=O)N1CCC[C@H]1C(=O)N1CCC[C@H]1C(=O)N[C@@H](CO)C(N)=O)C(C)C)C(=O)O` [Compound B35] (H-YSQGTFTSDYSKYLDK([γGlu-Palmitoyl])ARAQEFVKWLEDEPKSKSPPPS-NH2): 0.00794 nM and 251 nM.
Taken in the same sequence, the figures for `CCCCCCCCCCCCCCCC(=O)N[C@@H](CCC(=O)NCCCC[C@H](NC(=O)[C@H](CC(=O)O)NC(=O)[C@H](CO)NC(=O)[C@@H](NC(=O)[C@H](Cc1ccccc1)NC(=O)[C@@H](NC(=O)CNC(=O)[C@H](CCC(N)=O)NC(=O)[C@H](CO)NC(=O)[C@@H](N)Cc1ccc(O)cc1)[C@@H](C)O)[C@@H](C)O)C(=O)N[C@@H](CO)C(=O)N[C@@H](CCCCN)C(=O)N[C@@H](Cc1ccc(O)cc1)C(=O)N[C@@H](CC(C)C)C(=O)N[C@@H](CC(=O)O)C(=O)N[C@@H](C)C(=O)N[C@@H](C)C(=O)N[C@@H](CCCNC(=N)N)C(=O)N[C@@H](C)C(=O)N[C@@H](CCC(N)=O)C(=O)N[C@@H](CCC(=O)O)C(=O)N[C@@H](Cc1ccccc1)C(=O)N[C@H](C(=O)N[C@@H](CCCCN)C(=O)N[C@@H](Cc1c[nH]c2ccccc12)C(=O)N[C@@H](CC(C)C)C(=O)N[C@@H](CCC(=O)O)C(=O)N[C@@H](CC(=O)O)C(=O)N[C@@H](CCC(=O)O)C(=O)N1CCC[C@H]1C(=O)N[C@@H](CCCCN)C(=O)N[C@@H](CO)C(=O)N[C@@H](CCCCN)C(=O)N[C@@H](CO)C(=O)N1CCC[C@H]1C(=O)N1CCC[C@H]1C(=O)N1CCC[C@H]1C(=O)N[C@@H](CO)C(N)=O)C(C)C)C(=O)O` [Compound B36] (H-YSQGTFTSDK([γGlu-Palmitoyl])SKYLDAARAQEFVKWLEDEPKSKSPPPS-NH2) were 0.00316 nM and 7.94 nM.
Taken in the same sequence, the figures for `CCCCCCCCCCCCCCCC(=O)N[C@@H](CCC(=O)NCCCC[C@H](NC(=O)[C@@H](NC(=O)[C@H](Cc1ccccc1)NC(=O)[C@H](CCC(=O)O)NC(=O)[C@H](CCC(N)=O)NC(=O)[C@H](C)NC(=O)[C@H](CCCNC(=N)N)NC(=O)[C@H](C)NC(=O)[C@H](CO)NC(=O)[C@H](CC(=O)O)NC(=O)[C@H](CC(C)C)NC(=O)[C@H](Cc1ccc(O)cc1)NC(=O)[C@H](CCCCN)NC(=O)[C@H](CO)NC(=O)[C@H](Cc1ccc(O)cc1)NC(=O)[C@H](CC(=O)O)NC(=O)[C@H](CO)NC(=O)[C@@H](NC(=O)[C@H](Cc1ccccc1)NC(=O)[C@@H](NC(=O)CNC(=O)[C@H](Cc1c[nH]cn1)NC(=O)[C@H](CO)NC(=O)[C@@H](N)Cc1ccc(O)cc1)[C@@H](C)O)[C@@H](C)O)C(C)C)C(=O)N[C@@H](Cc1c[nH]c2ccccc12)C(=O)N[C@@H](CC(C)C)C(=O)N[C@@H](CCC(=O)O)C(=O)N[C@@H](CC(=O)O)C(=O)N[C@@H](CCC(=O)O)C(=O)N1CCC[C@H]1C(=O)N[C@@H](CO)C(=O)N[C@@H](CO)C(=O)NCC(=O)N[C@@H](C)C(=O)N1CCC[C@H]1C(=O)N1CCC[C@H]1C(=O)N1CCC[C@H]1C(=O)N[C@@H](CO)C(N)=O)C(=O)O` [Compound B42] (H-YSHGTFTSDYSKYLDSARAQEFVK([γGlu-Palmitoyl])WLEDEPSSGAPPPS-NH2) were 0.2 nM and above 1000 nM.
